Measured values as given in US10619195B2, “Gene-expression profiling with reduced numbers of transcript measurements” (Massachusetts Institute of Technology, priority 2010, dated 2020).

Key:
[1] = test system: histone-deacetylase (HDAC) inhibitor query signature; test: Original Connectivity Map (Affymetrix microarrays) queried with an HDAC-inhibitor query signature; format: cell-based, human; details: published HDAC-inhibitor query signature (Glaser et al.), n=12, p-value<0.001, highest score
From the text: The term “Connectivity Map” as used herein, refers to a public database of transcriptome-wide gene-expression profiles derived from cultured human cells treated with a plurality of perturbagens, and pattern-matching algorithms for the scoring and identification of significant similarities between those profiles and external gene-expression data, as described by Lamb et al., “The Connectivity Map: using gene-expression signatures to connect small molecules, genes and disease”. Science 313:1929 (2006). Build02 of the Connectivity Map contains 7,056 full-transcriptome gene-expression profiles generated with Affymetrix high-density oligonucleotide microarrays representing the biological effects of 1,309 small-molecule perturbagens, and is available at broadinstitute.org/cmap.
The term “enrichment score” as used herein, refers to a measure of the similarity of the biological effects of a perturbagen used to generate a query signature with those of a perturbagen represented in the Connectivity Map based upon the gene-expression profiles of multiple independent treatments with that perturbagen. […]

[2] = test system: histone-deacetylase (HDAC) inhibitor query signature; test: L1000 analog of Connectivity Map (1,000 landmark transcripts by LMF plus inference) queried with an HDAC-inhibitor query signature; format: cell-based, human; details: L1000 dataset, MCF7 cells; published HDAC-inhibitor query signature (Glaser et al.); n=8, p-value<0.001; highest scoring perturbagen
From the text: This example described one method for the generation of transcriptome-wide gene-expression profiles using measurement of the expression levels of a sub-transcriptome number of cluster centroid landmark transcripts. The present method uses the LMF moderate multiplex gene-expression analysis platform described by Peck et al. (“A method for high-throughput gene expression signature analysis” Genome Biology 7:R61 2006), the Luminex FlexMAP 3D optically-addressed microspheres and flow-cytometric detection system, 1,000 cluster centroid landmark transcripts (and corresponding gene-specific sequences) validated for LMF from Example III (above), a corresponding dependency matrix from Example III (above), 50 empirically-determined invariant transcripts with expression levels spanning the range of those observed, and 1,050 barcode sequences developed. The FlexMAP 3D system allows simultaneous quantification of 500 distinct analytes in samples arrayed in the wells of a 384-well plate. […]
MCF7 cells were treated with small molecules and corresponding vehicles in 384-well plates. […] The captured amplicons were labeled with phycoerythrin and the resulting microsphere populations were analyzed using a FlexMAP 3D instrument in accordance with the manufacturer's instructions. […]

[3] = test system: canonical NF-κB signaling pathway (BIOCARTA_NFKB_PATHWAY); test: Gene-Set Enrichment Analysis of L1000 profiles from macrophages treated with LPS; format: cell-based; details: primary human macrophages, LPS versus vehicle control; L1000 inferred profiles; 512 gene sets tested; p<0.001
Procedure: The expression levels of 1,000 cluster centroid transcripts were measured in primary human macrophages following treatment with lipopolysaccharide (LPS) or vehicle control, and used to create gene-expression profiles composed of expression levels for 22,268 transcripts, according to the L1000 methods described in Example IV.
LPS is known to be a potent activator of the NF-KB transcription-factor complex (Qin et al., “LPS induces CD40 gene expression through the activation of NF-κB and STAT-1a in macrophages and microglia” Blood 106: 3114-3122 2005).

Compound | enrichment score [1] | enrichment score [2] | GSEA score of the BIOCARTA_NFKB_PATHWAY gene set (23 members) [3]
O=C(CCCCCCC(=O)Nc1ccccc1)NO [vorinostat] | 0.973 | 0.921 | 
lipopolysaccharide [LPS] |  |  | highest score of all gene sets tested
